Source: patent publication US20090220473A1, “ADIR RELATED POLYMORPHISMS AND APPLICATIONS THEREOF” (Leiden University Medical Center, priority 2006, published 2009)
“Also recorded” adds a separate entry of the source. One block for each molecule: values may come before it.

Key:
GVHD = assay: Treatment of acute GVHD in the patient after DLI; assay type: in vivo, human; details: 1 mg prednisolone/kg body weight and cyclosporin A together
[1] = molecular target: T1, recombinant HLA A*0201 molecules (Homo sapiens, UniProt P04439, D140Y/D185E/D98H/E176V/E277Q/G131W/G231S/I119V/I121R/I166T/I218V/L300P/L318F/N151K/N90K/P208A/P217A/Q86G/Q94H/R138H/R169H/T345S); assay: Binding of peptides to recombinant HLA A*0201 molecules (monomer folding)
T1 construct: biotin (biotinylated); made in house
Description: Recombinant biotinilated HLA A*0201 monomers were folded in the presence of β2-microbglobulin with peptide […] or […]. Streptavidin-PE and streptavidin-APC tetramers were produced with refolded complexes as described previously (Altman et al. 1996 Science 274: 94-96). Tetrameric complexes were used to stain thawed patient samples taken at the indicated time points post SCT and DLI. Cells were counterstained by CD8 APC (Caltag, Burlingame, Calif., USA) and analysed by flowcytometry. Tetramer positive events were single well FACS sorted, expanded and tested for cytotoxicity.

T2 cells = assay: 51Cr release assay on peptide loaded T2 cells with CTL; assay type: cell-based; details: for recognition (lysis) by RDR2 of peptide loaded T2 cells: 51Cr release assay, FIG. 2b
Protocol: Cytotoxicity of CTL clones in standard ^51Cr release assays was performed as described previously (Faber et al. 1992, J Exp Med 176: 1283-1289). Target cells were labelled with 100 μCi Na2^51CrO4 (Amersham Biosciences, Freiburg, Germany) for 1 hour at 37° C., washed, and diluted to […] to 5*10^4 cells per ml to obtain 10^3 to 5*10^3 target cells per well. CTL's were added in various effector:target (E:T) ratios and incubated for 4 hours. Supernatants were harvested and transferred to solid scintillator containing microplates (Perkin Elmer, Boston Mass., USA) and counted on a Topcount counter (Perkin Elmer). HPLC purified natural peptides or diluted synthetic peptides were tested for reactivity by loading ^51Cr labelled T2 or donor EBV LCL cells for 1-2 hours at 37° C. and 5% CO2 prior to addition of CTL.

[2] = molecular target: recombinant HLA A*0201 molecules (human, biotinylated (site not stated)); assay: refolding of recombinant HLA A*0201 with beta2-microglobulin and peptide

Molecule: C[C@]12C=CC(=O)C=C1CC[C@@H]1[C@@H]2[C@@H](O)C[C@@]2(C)[C@H]1CC[C@]2(O)C(=O)CO [prednisolone]
- treatment of GVHD (GVHD): treated successfully

Molecule: SVAPAXAXFPA
- peptide level at which lysis by RDR2 was reconstituted (T2 cells; 51Cr labelled T2 cells loaded with synthetic peptide, levels as low as, data not shown): ≤ 10 pM

B1: LB-ADIR-1F peptide SVAPALALFPA (peptide)
peptide: SVAPALALFPA
notes: Synthetic 11-mer
- binding result [2]: binds

More lines, main results first:

- binding to recombinant HLA A*0201 molecules [1]: able to bind
Molecule: SVAPALALFPA [LB-ADIR-1F]
- recognition (lysis) by RDR2 of peptide loaded T2 cells (T2 cells): lysed; also recorded: recognized

- binding to recombinant HLA A*0201 molecules [1]: able to bind
Molecule: SVAPALALSPA [SVAPALAL-S-PA, donor-type allelic counterpart peptide with serine at position 9, reference compound]
- recognition (lysis) by RDR2 of peptide loaded T2 cells (T2 cells): not

- binding result [2]: binds
B2: peptide SVAPALALSPA (peptide)
peptide: SVAPALALSPA
notes: Synthetic peptide of the donor-type (Ser) allele
